# Source: patent US9943554B2, “Compositions and methods relating to solenopsins and their uses in treating neurological disorders and enhancing physical performance” (priority 2006, dated 2018)
# Read-outs that look alike come from different tables or passages of the source.
# Assays:
# Aβ1-42 peptide [1] = assay: Acute administration for 7 days: brain and plasma Aβ1-42 peptide levels; type: in vivo, APP transgenic mice; settings: 10 mg/kg for 7 days in 25% PEG 400, at 7 days
# Protocol: Animals were dosed once with SPI-001 and then examined at 7 days for AP peptide levels.
# CamK1δ = CamK1δ (Homo sapiens, UniProt Q8IU85); assay: Initial studies: CamK1δ; type: biochemical
# [2] = biological target: T1, muscarinic receptors (M2) (Homo sapiens, UniProt P08172); assay: CEREP screen: muscarinic receptor M2; type: binding; set-up: dose or concentration left out as unconfirmed
# T1 construct: CEREP
# T1 sequence (P08172 1-466): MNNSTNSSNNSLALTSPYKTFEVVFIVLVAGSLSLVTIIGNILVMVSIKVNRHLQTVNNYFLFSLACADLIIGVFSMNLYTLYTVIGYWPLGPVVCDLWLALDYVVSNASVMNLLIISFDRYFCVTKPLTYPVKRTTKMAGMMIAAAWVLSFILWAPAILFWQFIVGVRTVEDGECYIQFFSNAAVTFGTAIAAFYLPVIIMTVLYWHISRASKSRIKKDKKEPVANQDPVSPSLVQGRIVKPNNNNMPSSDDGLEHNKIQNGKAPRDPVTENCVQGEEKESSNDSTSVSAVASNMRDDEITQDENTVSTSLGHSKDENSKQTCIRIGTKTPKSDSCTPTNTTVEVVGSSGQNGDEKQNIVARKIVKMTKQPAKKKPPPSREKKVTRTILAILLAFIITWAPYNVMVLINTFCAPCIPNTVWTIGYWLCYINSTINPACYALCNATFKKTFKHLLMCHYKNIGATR
# Protocol: (§1) Recent CEREP screen indicated for SPI-001 ([…]) that it inhibited muscarinic receptors (M1, M2 and M3), Na+ channels and monoamine (NE, DA, and 5-HT) transporters with high affinity (˜90%).
# amyloid load = assay: Amyloid (plaque) load in the brain after repetitive administration for 3 months; type: in vivo; settings: APP transgenic mice; 10 mg/kg orally daily for 3 months; compared to control animals
# Source text: (§2) The APP mice (male) used in these experiments were designed by microinjection of the human APP gene (with the Swedish and London mutations) into mouse eggs under the control of the platelet-derived growth factor B (PDGF-B) chain gene promoter. The mice were generated on a C57BL/6 background. Animals were housed in the Medical University of South Carolina Animal Facility under a 12:12 light:dark cycle. Animals were housed in standard non-sterile rodent microisolator cages, with filtered cage tops and housed 4 to a cage. Animals were fed ad libitum and maintained by brother sister mating. Transgenic animals were identified by PCR analysis. The mice generated from this construct develop amyloid deposits starting at 3 months of age. Animals were aged for 3 months and then maintained for 90 days and sacrificed for amyloid quantification.
# (§3) SPI-001 was administered to APP transgenic mice at 10 mg/kg for 3 months to determine the effect upon Aβ peptide and amyloid load. Animals were administered SPI-001 orally in 25% PEG daily and examined for abnormal pathology. […] Animals were analyzed for behavioral changes associated with drug treatment (FIG. 7). […] FIG. 8 illustrates the plaque load in the brains of control and SPI-001 treated animals.
# [3] = biological target: T2, monoamine (5-HT) transporters (Homo sapiens, UniProt P31645); assay: CEREP screen: 5-HT transporter; type: binding; set-up: dose or concentration left out as unconfirmed
# T2 construct: CEREP
# Protocol: as §1
# Pl3 kinase = assay: Initial studies: Pl3 kinase; type: biochemical
# Aβ1-40 peptide [4] = assay: Brain and plasma Aβ1-40 peptide levels in guinea pigs after single oral administration; type: in vivo; settings: Guinea Pig; single 10 mg/kg oral; compared with Aβ1-42
# Protocol: (§4) Animals were dosed once with SPI-001 and then examined at 0, 4, 24, 48 hours and 7 days for AP peptide levels.
# APP transgenic mice [5] = assay: Examination for abnormal pathology after repetitive administration for 3 months; type: in vivo; settings: 10 mg/kg orally daily for 3 months
# Protocol: as §3
# Aβ1-42 peptide [6] = assay: Brain and plasma Aβ1-42 peptide levels in APP transgenic mice after single oral administration; type: in vivo
# Source text: as §2
# (§5) FIG. 2 illustrates the effect of SPI-001 on brain Aβ1-42 peptide levels when administered at 10 mg/kg orally to the APP transgenic mice. Animals were dosed once with SPI-001 and then examined at 0, 4, 24 hours and 7 days for A[…] peptide levels (Biosource International). […] The plasma levels were opposite to the brain levels.
# (§6) Animals were dosed once with SPI-001 and then examined at 0, 4, 24, 48 hours and 7 days for A[…] peptide levels. […] The plasma levels were opposite to the brain levels.
# Solubility of SPI-001 = type: physicochemical; settings: for solubility: organic solvent or mixture
# Protocol: Based on chemical synthesis of SPI-001 and mass spec analysis, the compound has a molecular weight of <500. It is not a protein or peptide, but is a small molecule. SPI-001 is soluble in dimethyl sulfoxide (DMSO) and ethanol to 100 mg/ml. […] SPI-001 can be resuspended in 25% polyethylene glycol (PEG) 400 for oral delivery.
# MSK1 = MSK1 (Homo sapiens, UniProt O75582); assay: Initial studies: MSK1; type: biochemical
# APP transgenic mice [7] = assay: Morris water maze test in APP mice treated for 90 days; type: in vivo; settings: 10 mg/kg orally in 25% PEG daily for 3 months (90 days)
# Protocol: Morris water-maze testing. All mice were tested once in the Morris water maze test at the end of the experiment. Mice were trained in a 1.2 m open field water maze. The pool was filled to a depth of 30 cm with water and maintained at 25° C. The escape platform (10 cm square) was placed 1 cm below the surface of the water. During the trials, the platform was removed from the pool. The cued test was carried out in the pool surrounded with white curtains to hide any extra-maze cues. All animals underwent non-spatial pretraining (NSP) for three consecutive days. These trials were to prepare the animals for the final behavioral test to determine the retention of memory to find the platform. These trials were not recorded (for training purposes only). For the training and learning studies, the curtains were removed to add extra-maze cues (this allows for the identification of animals with swimming impairments). On day 1, the mice were placed on the hidden platform for 20 seconds (trial 1), for trials 2-3 animals were released in the water at a distance of 10 cm from the cued-platform or hidden platform (trial 4) and allowed to swim to the platform. […]
# SPI-001 was administered to APP transgenic mice at 10 mg/kg for 3 months to determine the effect upon Aβ peptide and amyloid load. […] Animals were analyzed for behavioral changes associated with drug treatment (FIG. 7). […]
# Aβ1-42 peptide [8] = assay: Brain and plasma Aβ1-42 peptide levels in guinea pigs after single oral administration; type: in vivo; settings: Guinea Pig, single 10 mg/kg oral
# Protocol: as §4
# Aβ1-40 peptide [9] = assay: Brain and plasma Aβ1-40 peptide levels in APP transgenic mice after single oral administration; type: in vivo; settings: single 10 mg/kg oral, compared with Aβ1-42
# Source text: as §2, §5, §6
# [10] = PK profile in plasma and brain of APP transgenic animals; type: in vivo, APP transgenic mice; settings: orally 10 mg/kg
# Protocol: For PK profile, the APP transgenic animals were administered SPI-001, and blood samples and brain tissue were collected and subjected to drug analysis.
# C57BL/6 mice = assay: Selectivity and safety profile in C57BL/6 mice; type: in vivo
# Protocol: Animals (C57BL/6 mice, 5 mice per group) were treated with SPI-001 at 0, 4, 40, and 400 mg/kg in 25% PEG 400 with a single dose and examined 14 days later.
# [11] = biological target: T3, monoamine (DA) transporters (Homo sapiens, UniProt Q01959); assay: CEREP screen: DA transporter; type: binding; set-up: dose or concentration left out as unconfirmed
# T3 construct: CEREP
# Protocol: as §1
# Na+ channels = assay: CEREP screen: Na+ channels; type: binding; settings: SPI-001 10 mM
# Protocol: as §1
# Aβ peptide = Aβ peptide levels in the brain after repetitive administration for 3 months; type: in vivo; settings: APP transgenic mice; 10 mg/kg orally daily for 3 months; compared to control animals
# Source text: as §2, §3
# MAPKAPK2 pathways = assay: Initial studies: MAPKAPK2 pathways; type: biochemical
# [12] = biological target: T4, muscarinic receptors (M1) (Homo sapiens, UniProt P11229); assay: CEREP screen: muscarinic receptor M1; type: binding; set-up: dose or concentration left out as unconfirmed
# T4 construct: CEREP
# T4 sequence (P11229 1-460): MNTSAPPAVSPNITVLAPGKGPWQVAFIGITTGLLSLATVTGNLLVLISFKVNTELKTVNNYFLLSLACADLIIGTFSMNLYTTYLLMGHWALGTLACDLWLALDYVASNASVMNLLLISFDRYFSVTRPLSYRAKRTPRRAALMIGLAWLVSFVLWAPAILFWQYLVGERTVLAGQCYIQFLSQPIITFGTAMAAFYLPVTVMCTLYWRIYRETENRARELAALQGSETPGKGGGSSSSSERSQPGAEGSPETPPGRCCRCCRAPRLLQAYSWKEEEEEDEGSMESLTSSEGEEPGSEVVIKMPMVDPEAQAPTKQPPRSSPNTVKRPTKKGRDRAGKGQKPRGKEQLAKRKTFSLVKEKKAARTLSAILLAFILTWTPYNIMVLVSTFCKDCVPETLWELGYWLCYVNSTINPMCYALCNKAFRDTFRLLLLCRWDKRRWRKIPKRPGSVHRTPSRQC
# Protocol: as §1
# [13] = biological target: T5, muscarinic receptors (M3) (Homo sapiens, UniProt P20309); assay: CEREP screen: muscarinic receptor M3; type: binding; set-up: dose or concentration left out as unconfirmed
# T5 construct: CEREP
# Protocol: as §1
# [14] = biological target: T6, monoamine (NE) transporters (Homo sapiens, UniProt P23975); assay: CEREP screen: NE transporter; type: binding; set-up: dose or concentration left out as unconfirmed
# T6 construct: CEREP
# Protocol: as §1
# [15] = 400 mg/kg in 25% PEG 400 for 14 days
# [16] = C57BL/6 mice, single dose 4, 40 and 400 mg/kg in 25% PEG 400, examined 14 days later
# T2 sequence (P31645 whole entry): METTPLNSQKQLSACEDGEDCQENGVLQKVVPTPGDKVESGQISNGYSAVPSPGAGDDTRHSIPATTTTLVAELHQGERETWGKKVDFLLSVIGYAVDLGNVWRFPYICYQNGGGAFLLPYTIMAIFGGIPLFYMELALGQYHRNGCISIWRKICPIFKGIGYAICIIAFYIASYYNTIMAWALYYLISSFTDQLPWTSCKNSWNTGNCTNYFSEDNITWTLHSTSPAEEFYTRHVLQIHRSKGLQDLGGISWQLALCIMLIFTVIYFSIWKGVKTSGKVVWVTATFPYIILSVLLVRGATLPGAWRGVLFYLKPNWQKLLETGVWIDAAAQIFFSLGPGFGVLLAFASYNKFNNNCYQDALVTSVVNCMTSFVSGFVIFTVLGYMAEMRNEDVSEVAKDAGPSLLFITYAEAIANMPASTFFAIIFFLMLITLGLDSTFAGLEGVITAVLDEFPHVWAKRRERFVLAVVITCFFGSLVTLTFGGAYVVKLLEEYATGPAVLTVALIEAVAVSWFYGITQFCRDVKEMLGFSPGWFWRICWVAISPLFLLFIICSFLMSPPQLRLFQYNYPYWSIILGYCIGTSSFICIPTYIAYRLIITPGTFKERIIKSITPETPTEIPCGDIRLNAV
# Sequence of MSK1 (O75582 whole entry, species assumed): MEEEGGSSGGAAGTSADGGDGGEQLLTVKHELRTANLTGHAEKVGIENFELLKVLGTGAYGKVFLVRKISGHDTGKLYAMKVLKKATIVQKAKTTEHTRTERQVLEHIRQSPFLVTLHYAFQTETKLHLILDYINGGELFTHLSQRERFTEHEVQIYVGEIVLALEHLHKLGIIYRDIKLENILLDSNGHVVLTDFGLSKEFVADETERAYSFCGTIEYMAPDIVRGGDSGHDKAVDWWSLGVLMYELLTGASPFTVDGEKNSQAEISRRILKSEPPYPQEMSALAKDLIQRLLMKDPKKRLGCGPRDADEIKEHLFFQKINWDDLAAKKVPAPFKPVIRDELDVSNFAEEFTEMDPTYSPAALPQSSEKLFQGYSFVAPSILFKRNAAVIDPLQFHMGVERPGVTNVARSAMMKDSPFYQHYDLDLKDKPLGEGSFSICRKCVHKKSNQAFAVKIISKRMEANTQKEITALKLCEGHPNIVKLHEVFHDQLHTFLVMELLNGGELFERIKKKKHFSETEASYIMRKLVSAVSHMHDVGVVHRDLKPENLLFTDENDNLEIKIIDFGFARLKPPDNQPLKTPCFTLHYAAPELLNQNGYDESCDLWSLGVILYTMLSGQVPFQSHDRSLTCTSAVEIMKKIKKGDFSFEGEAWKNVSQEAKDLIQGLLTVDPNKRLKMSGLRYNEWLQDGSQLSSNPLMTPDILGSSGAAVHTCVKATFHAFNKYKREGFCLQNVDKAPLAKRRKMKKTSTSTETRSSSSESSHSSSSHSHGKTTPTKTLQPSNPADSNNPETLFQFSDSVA
# T5 sequence (P20309 whole entry): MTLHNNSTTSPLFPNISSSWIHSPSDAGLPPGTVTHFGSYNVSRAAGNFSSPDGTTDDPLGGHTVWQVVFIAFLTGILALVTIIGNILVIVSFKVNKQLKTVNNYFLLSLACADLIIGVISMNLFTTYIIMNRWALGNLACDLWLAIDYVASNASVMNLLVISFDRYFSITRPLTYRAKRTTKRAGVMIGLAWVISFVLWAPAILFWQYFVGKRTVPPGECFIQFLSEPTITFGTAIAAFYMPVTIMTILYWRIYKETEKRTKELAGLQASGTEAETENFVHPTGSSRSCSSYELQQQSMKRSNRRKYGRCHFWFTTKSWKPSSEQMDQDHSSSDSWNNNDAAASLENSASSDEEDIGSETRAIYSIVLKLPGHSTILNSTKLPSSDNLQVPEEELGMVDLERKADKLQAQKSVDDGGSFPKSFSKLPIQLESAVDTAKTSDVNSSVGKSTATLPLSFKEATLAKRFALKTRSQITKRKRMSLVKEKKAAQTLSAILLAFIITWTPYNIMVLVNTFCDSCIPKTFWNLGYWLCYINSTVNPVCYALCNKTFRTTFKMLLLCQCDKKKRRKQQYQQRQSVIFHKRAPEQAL
# T3 sequence (Q01959 whole entry): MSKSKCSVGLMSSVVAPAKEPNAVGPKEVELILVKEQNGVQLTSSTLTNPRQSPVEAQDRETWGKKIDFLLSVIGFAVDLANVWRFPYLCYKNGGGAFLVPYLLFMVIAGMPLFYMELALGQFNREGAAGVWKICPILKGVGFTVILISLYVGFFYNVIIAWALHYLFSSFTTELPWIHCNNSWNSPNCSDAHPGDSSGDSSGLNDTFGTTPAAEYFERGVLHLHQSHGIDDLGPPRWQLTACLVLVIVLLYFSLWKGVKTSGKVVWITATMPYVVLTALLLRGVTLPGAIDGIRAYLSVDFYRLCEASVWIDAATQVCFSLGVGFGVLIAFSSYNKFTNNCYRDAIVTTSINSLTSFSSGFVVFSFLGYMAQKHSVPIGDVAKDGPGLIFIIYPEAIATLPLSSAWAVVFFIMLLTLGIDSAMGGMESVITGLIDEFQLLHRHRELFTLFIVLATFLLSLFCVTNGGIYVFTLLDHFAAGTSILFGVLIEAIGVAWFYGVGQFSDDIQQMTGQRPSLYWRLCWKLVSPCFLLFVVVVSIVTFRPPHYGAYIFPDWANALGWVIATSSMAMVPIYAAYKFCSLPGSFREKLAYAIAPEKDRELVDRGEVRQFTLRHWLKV
# T6 sequence (P23975 whole entry): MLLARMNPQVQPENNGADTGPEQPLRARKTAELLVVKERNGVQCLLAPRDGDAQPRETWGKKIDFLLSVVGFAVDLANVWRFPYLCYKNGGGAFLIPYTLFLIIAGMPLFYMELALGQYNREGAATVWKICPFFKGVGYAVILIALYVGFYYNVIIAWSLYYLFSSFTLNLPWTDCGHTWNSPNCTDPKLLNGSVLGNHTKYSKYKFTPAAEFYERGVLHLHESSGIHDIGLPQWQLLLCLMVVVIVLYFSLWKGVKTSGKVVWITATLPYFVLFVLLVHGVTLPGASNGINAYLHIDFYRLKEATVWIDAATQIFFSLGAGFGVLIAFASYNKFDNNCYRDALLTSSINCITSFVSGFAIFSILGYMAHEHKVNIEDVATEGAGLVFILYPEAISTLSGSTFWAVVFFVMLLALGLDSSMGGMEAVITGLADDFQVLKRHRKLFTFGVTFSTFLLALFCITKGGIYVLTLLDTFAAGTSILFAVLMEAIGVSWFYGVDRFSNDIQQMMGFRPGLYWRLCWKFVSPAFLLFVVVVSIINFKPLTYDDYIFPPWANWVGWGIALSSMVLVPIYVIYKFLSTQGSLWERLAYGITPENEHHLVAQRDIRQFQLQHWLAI
# Sequence of CamK1δ (Q8IU85 whole entry): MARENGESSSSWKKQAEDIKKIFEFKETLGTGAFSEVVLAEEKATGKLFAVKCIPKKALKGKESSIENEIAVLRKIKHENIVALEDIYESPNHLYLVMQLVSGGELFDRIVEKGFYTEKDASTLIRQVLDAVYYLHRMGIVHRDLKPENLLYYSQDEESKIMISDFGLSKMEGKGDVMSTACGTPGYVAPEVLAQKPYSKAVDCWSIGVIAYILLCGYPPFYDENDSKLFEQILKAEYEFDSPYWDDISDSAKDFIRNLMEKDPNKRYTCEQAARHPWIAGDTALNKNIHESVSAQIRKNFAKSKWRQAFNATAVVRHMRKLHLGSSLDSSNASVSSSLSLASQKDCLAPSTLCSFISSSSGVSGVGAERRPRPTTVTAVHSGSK
compound,measurement,setting,value
"CCCCCCCCCCC[C@H]1CCC[C@H](C)N1 (relative stereo) [SPI-001, trans-2-methyl 6-n-undecylpiperidine]",brain Aβ1-42 peptide levels,Aβ1-42 peptide [1]; compared to control animals given 25% PEG only,decreased
same,plasma Aβ1-42 peptide levels,Aβ1-42 peptide [1]; compared to control levels,increased
same,effect on CamK1δ,CamK1δ,inhibits
same,inhibition,[2],~90%
same,amyloid load,amyloid load,significantly reduced
same,inhibition,[3],~90%
same,effect on Pl3 kinase,Pl3 kinase,inhibiting
same,brain Aβ1-40 peptide levels,Aβ1-40 peptide [4],same levels of decrease in the brain
same,plasma Aβ1-40 peptide levels,Aβ1-40 peptide [4],increase in the plasma
same,"systemic pathological features (liver, kidney, heart, lungs, intestine)",APP transgenic mice [5],did not show any signs of systemic pathological features
same,brain Aβ1-42 peptide levels,"Aβ1-42 peptide [6]; single 10 mg/kg oral in 25% PEG 400, 4 hr",decreased
same,plasma Aβ1-42 peptide levels,"Aβ1-42 peptide [6]; single 10 mg/kg oral, 4 hr",increased
same,brain Aβ1-42 peptide levels,"Aβ1-42 peptide [6]; single 10 mg/kg oral, 24 hours",continued to decrease
same,plasma Aβ1-42 peptide levels,"Aβ1-42 peptide [6]; single 10 mg/kg oral, 24 hours",continued to increase
same,brain Aβ1-42 peptide levels,"Aβ1-42 peptide [6]; single 10 mg/kg oral, 48 hours",returned to control levels
same,plasma Aβ1-42 peptide levels,"Aβ1-42 peptide [6]; single 10 mg/kg oral, 48 hours",returned to control levels
same,brain Aβ1-42 peptide levels,"Aβ1-42 peptide [6]; single 10 mg/kg oral, 7 days",returned to control levels
same,plasma Aβ1-42 peptide levels,"Aβ1-42 peptide [6]; single 10 mg/kg oral, 7 days",returned to control levels
same,solubility,"Solubility of SPI-001; dimethyl sulfoxide (DMSO), read-out: solubility in dimethyl sulfoxide (DMSO)",100 mg/mL
same,solubility,"Solubility of SPI-001; ethanol, read-out: solubility in ethanol",100 mg/mL
same,solubility in water,Solubility of SPI-001; water,slightly soluble
same,effect on MSK1,MSK1,inhibits
same,behavior in the Morris Water Maze,APP transgenic mice [7],improvement in behavior
same,brain Aβ1-42 peptide levels,Aβ1-42 peptide [8]; 4 hr,decreased
same,plasma Aβ1-42 peptide levels,Aβ1-42 peptide [8]; 4 hr,increased
same,brain Aβ1-42 peptide levels,Aβ1-42 peptide [8]; 24 hours,continued to decrease
same,plasma Aβ1-42 peptide levels,Aβ1-42 peptide [8]; 24 hours,continued to increase
same,brain Aβ1-42 peptide levels,Aβ1-42 peptide [8]; 48 hours,returned to control levels
same,plasma Aβ1-42 peptide levels,Aβ1-42 peptide [8]; 48 hours,returned to control levels
same,brain Aβ1-42 peptide levels,Aβ1-42 peptide [8]; 7 days,returned to control levels
same,plasma Aβ1-42 peptide levels,Aβ1-42 peptide [8]; 7 days,returned to control levels
same,brain Aβ1-40 peptide levels,Aβ1-40 peptide [9],same levels of decrease in the brain
same,plasma Aβ1-40 peptide levels,Aβ1-40 peptide [9],increase in the plasma
same,SPI-001 levels in brain,[10],increased significantly
same,SPI-001 levels in plasma,[10],increased significantly
same,time SPI-001 levels were maintained in brain,[10],approximately 24 hours
same,time SPI-001 levels were maintained in plasma,[10],approximately 24 hours
same,course of body weight changes,C57BL/6 mice; [15],stopped by 14 days and reversed
same,gross behavioral deficits,C57BL/6 mice; [15],no gross behavioral deficits
same,histological abnormalities in the tissues examined,C57BL/6 mice; [15],no histological abnormalities
same,body weight over the 14 days,"C57BL/6 mice; 400 mg/kg in 25% PEG 400 for 14 days, 25% PEG animals showed a similar profile",slight decrease in body weight
same,gross behavioral deficits upon visual inspection (daily),C57BL/6 mice; [16],no gross behavioral deficits
same,"histological analysis of tissues (brain, liver, kidney, heart, intestine, lungs)",C57BL/6 mice; [16],did not show any abnormal structures
same,inhibition,[11],~90%
same,inhibition of Na+ channels,Na+ channels,~90%
same,Aβ peptide levels,Aβ peptide,significantly reduced
same,effect on MAPKAPK2 pathways,MAPKAPK2 pathways,activating
same,inhibition,[12],~90%
same,inhibition,[13],~90%
same,inhibition,[14],~90%
